# PubChem BioAssay (NCI)
#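 How tested: cells in 96-well plates exposed to compound for 48 hours at five concentrations. Abbreviation: GI50, concentration required for 50% inhibition of growth. TGI denotes the concentration required for complete inhibition of growth.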
# Legend:
# Assay in all cases: DTP human tumour cell line panel, 48 h
# [1] = system: 786-0 renal
# [2] = system: A498 renal
# [3] = system: A549 NSCLC
# [4] = system: ACHN renal
# [5] = system: BT-549 breast
# [6] = system: CAKI-1 renal
# [7] = system: CCRF-CEM leukemia
# [8] = system: COLO 205 colon
# [9] = system: DU-145 prostate
# [10] = system: EKVX NSCLC
# [11] = system: HCC-2998 colon
# [12] = system: HCT-116 colon
# [13] = system: HCT-15 colon
# [14] = system: HL-60(TB) leukemia
# [15] = system: HOP-62 NSCLC
# [16] = system: HOP-92 NSCLC
# [17] = system: HS 578T breast
# [18] = system: HT29 colon
# [19] = system: IGROV1 ovarian
# [20] = system: K-562 leukemia
# [21] = system: KM12 colon
# [22] = system: LOX IMVI melanoma
# [23] = system: M14 melanoma
# [24] = system: MALME-3M melanoma
# [25] = system: MCF7 breast
# [26] = system: MDA-MB-231 breast
# [27] = system: MDA-MB-435
# [28] = system: MOLT-4 leukemia
# [29] = system: NCI-H226 lung
# [30] = system: NCI-H23 lung
# [31] = system: NCI-H460 lung
# [32] = system: NCI-H522 lung
# [33] = system: NCI/ADR-RES ovarian
# [34] = system: OVCAR-3 ovarian
# [35] = system: OVCAR-4 ovarian
# [36] = system: OVCAR-5 ovarian
# [37] = system: OVCAR-8 ovarian
# [38] = system: PC-3 prostate
# [39] = system: RPMI-8226 leukemia
# [40] = system: RXF 393 renal
# [41] = system: SF-268 CNS
# [42] = system: SF-295 CNS
# [43] = system: SF-539 CNS
# [44] = system: SK-MEL-2 melanoma
# [45] = system: SK-MEL-28 melanoma
# [46] = system: SK-MEL-5 melanoma
# [47] = system: SK-OV-3 ovarian
# [48] = system: SN12C renal
# [49] = system: SNB-19 CNS
# [50] = system: SNB-75 CNS
# [51] = system: SR leukemia
# [52] = system: SW-620 colon
# [53] = system: T-47D breast
# [54] = system: TK-10 renal
# [55] = system: U251 CNS
# [56] = system: UACC-257 melanoma
# [57] = system: UACC-62 melanoma
# [58] = system: UO-31 renal
compound,measurement,setting,value
COc1ccc(CNc2c3ccccc3nc3ccccc23)cc1F,GI50,[1],3.6 µM
same,TGI,[1],13.7 µM
same,GI50,[2],1.98 µM
same,TGI,[2],5.99 µM
same,GI50,[3],3.55 µM
same,TGI,[3],18 µM
same,GI50,[4],3.03 µM
same,TGI,[4],11.3 µM
same,GI50,[5],4.88 µM
same,TGI,[5],18.3 µM
same,GI50,[6],2.26 µM
same,TGI,[6],8.35 µM
same,GI50,[7],3.81 µM
same,TGI,[7],35.6 µM
same,GI50,[8],2.01 µM
same,TGI,[8],5.64 µM
same,GI50,[9],3.65 µM
same,TGI,[9],12.4 µM
same,GI50,[10],3.59 µM
same,TGI,[10],14.5 µM
same,GI50,[11],2.07 µM
same,TGI,[11],5.27 µM
same,GI50,[12],2.92 µM
same,TGI,[12],12.3 µM
same,GI50,[13],2.45 µM
same,TGI,[13],7.8 µM
same,GI50,[14],3.37 µM
same,TGI,[14],10.4 µM
same,GI50,[15],4.2 µM
same,TGI,[15],20.5 µM
same,GI50,[16],1.96 µM
same,TGI,[16],7.61 µM
same,GI50,[17],3.06 µM
same,TGI,[17],11.5 µM
same,GI50,[18],2.58 µM
same,TGI,[18],10.3 µM
same,GI50,[19],2.82 µM
same,TGI,[19],10.4 µM
same,GI50,[20],2.94 µM
same,TGI,[20],12.3 µM
same,GI50,[21],3.93 µM
same,TGI,[21],15.1 µM
same,GI50,[22],1.76 µM
same,TGI,[22],3.63 µM
same,GI50,[23],1.79 µM
same,TGI,[23],3.59 µM
same,GI50,[24],2.71 µM
same,TGI,[24],7.73 µM
same,GI50,[25],2.11 µM
same,TGI,[25],5.4 µM
same,GI50,[26],3.16 µM
same,TGI,[26],10.7 µM
same,GI50,[27],2.9 µM
same,GI50,[28],3.28 µM
same,TGI,[28],14.6 µM
same,GI50,[29],2.85 µM
same,TGI,[29],10.4 µM
same,GI50,[30],2.74 µM
same,TGI,[30],12.9 µM
same,GI50,[31],3.15 µM
same,TGI,[31],10.4 µM
same,GI50,[32],2.01 µM
same,TGI,[32],6.45 µM
same,GI50,[33],2.58 µM
same,TGI,[33],10.3 µM
same,GI50,[34],4.08 µM
same,TGI,[34],13.3 µM
same,GI50,[35],3.28 µM
same,TGI,[35],12.5 µM
same,GI50,[36],3.52 µM
same,TGI,[36],13.5 µM
same,GI50,[37],3.52 µM
same,TGI,[37],19.4 µM
same,GI50,[38],3.14 µM
same,TGI,[38],12 µM
same,GI50,[39],2.64 µM
same,TGI,[39],7.25 µM
same,GI50,[40],1.8 µM
same,TGI,[40],4.82 µM
same,GI50,[41],3.76 µM
same,TGI,[41],15.1 µM
same,GI50,[42],2.68 µM
same,TGI,[42],10.4 µM
same,GI50,[43],3.04 µM
same,TGI,[43],10.7 µM
same,GI50,[44],3.45 µM
same,TGI,[44],13.4 µM
same,GI50,[45],3.84 µM
same,TGI,[45],13.9 µM
same,GI50,[46],3.21 µM
same,TGI,[46],10.6 µM
same,GI50,[47],3.66 µM
same,TGI,[47],16.3 µM
same,GI50,[48],2.93 µM
same,TGI,[48],11.9 µM
same,GI50,[49],3.41 µM
same,TGI,[49],14.7 µM
same,GI50,[50],3.21 µM
same,TGI,[50],15.2 µM
same,GI50,[51],2.49 µM
same,TGI,[51],9.37 µM
same,GI50,[52],2.51 µM
same,TGI,[52],10.5 µM
same,GI50,[53],4.39 µM
same,TGI,[53],21.5 µM
same,GI50,[54],3.55 µM
same,TGI,[54],15.7 µM
same,GI50,[55],3.82 µM
same,TGI,[55],15.5 µM
same,GI50,[56],3.98 µM
same,TGI,[56],16.7 µM
same,GI50,[57],2.97 µM
same,TGI,[57],12.9 µM
same,GI50,[58],1.49 µM
same,TGI,[58],6.15 µM
CCCCCCn1c(-c2ccc(C(=O)O/N=C(\N)c3ccc4c(c3)OCO4)cc2)nc(-c2ccccc2)c1-c1ccccc1,GI50,[1],1.02 µM
same,TGI,[1],2.56 µM
same,GI50,[2],1.01 µM
same,TGI,[2],3.86 µM
same,GI50,[3],1.41 µM
same,TGI,[3],3.68 µM
same,GI50,[4],0.387 µM
same,TGI,[4],1.46 µM
same,GI50,[5],2.02 µM
same,TGI,[5],5.41 µM
same,GI50,[6],1.39 µM
same,TGI,[6],2.86 µM
same,GI50,[7],1.29 µM
same,TGI,[7],4.25 µM
same,GI50,[8],2.15 µM
same,TGI,[8],5.37 µM
same,GI50,[9],1.33 µM
same,TGI,[9],2.66 µM
same,GI50,[10],1.76 µM
same,TGI,[10],3.96 µM
same,GI50,[11],2.96 µM
same,TGI,[11],10.4 µM
same,GI50,[12],1.59 µM
same,TGI,[12],3.34 µM
same,GI50,[13],1.61 µM
same,TGI,[13],3.34 µM
same,GI50,[14],1.42 µM
same,TGI,[14],3.49 µM
same,GI50,[15],2.11 µM
same,TGI,[15],4.71 µM
same,GI50,[16],1.48 µM
same,TGI,[16],3.3 µM
same,GI50,[17],1.64 µM
same,TGI,[17],3.95 µM
same,GI50,[18],3.64 µM
same,TGI,[18],39.1 µM
same,GI50,[19],0.463 µM
same,TGI,[19],1.93 µM
same,GI50,[20],1.92 µM
same,TGI,[20],5.06 µM
same,GI50,[21],3.9 µM
same,TGI,[21],> 100 µM
same,GI50,[22],0.173 µM
same,TGI,[22],0.329 µM
same,GI50,[23],3.75 µM
same,TGI,[23],22.1 µM
same,GI50,[24],1.83 µM
same,TGI,[24],4.06 µM
same,GI50,[25],1.58 µM
same,TGI,[25],3.5 µM
same,GI50,[26],2.41 µM
same,TGI,[26],6.72 µM
same,GI50,[27],1.77 µM
same,TGI,[27],3.35 µM
same,GI50,[28],1.74 µM
same,TGI,[28],4.55 µM
same,GI50,[29],3.47 µM
same,TGI,[29],15.9 µM
same,GI50,[30],1.48 µM
same,TGI,[30],3.05 µM
same,GI50,[31],2.08 µM
same,TGI,[31],4.57 µM
same,GI50,[32],1.81 µM
same,TGI,[32],3.92 µM
same,GI50,[33],1.68 µM
same,TGI,[33],3.65 µM
same,GI50,[34],2.48 µM
same,TGI,[34],7.87 µM
same,GI50,[35],2.21 µM
same,TGI,[35],7 µM
same,GI50,[36],2.9 µM
same,TGI,[36],13.8 µM
same,GI50,[37],2.46 µM
same,TGI,[37],7.09 µM
same,GI50,[38],2.62 µM
same,TGI,[38],11.3 µM
same,GI50,[39],1.94 µM
same,TGI,[39],5.25 µM
same,GI50,[40],1.77 µM
same,TGI,[40],3.88 µM
same,GI50,[41],2.11 µM
same,TGI,[41],4.64 µM
same,GI50,[42],1.69 µM
same,TGI,[42],3.35 µM
same,GI50,[43],1.72 µM
same,TGI,[43],3.2 µM
same,GI50,[44],4.19 µM
same,TGI,[44],21.7 µM
same,GI50,[45],4.47 µM
same,TGI,[45],22.7 µM
same,GI50,[46],2.22 µM
same,TGI,[46],4.93 µM
same,GI50,[47],10.4 µM
same,TGI,[47],64.3 µM
same,GI50,[48],1.87 µM
same,TGI,[48],4.09 µM
same,GI50,[49],3.24 µM
same,TGI,[49],12.2 µM
same,GI50,[50],1.7 µM
same,TGI,[50],4.9 µM
same,GI50,[51],0.28 µM
same,TGI,[51],1.43 µM
same,GI50,[52],2.8 µM
same,TGI,[52],12 µM
same,GI50,[53],2.03 µM
same,TGI,[53],5.11 µM
same,GI50,[54],1.94 µM
same,TGI,[54],3.61 µM
same,GI50,[55],1.74 µM
same,TGI,[55],3.81 µM
same,GI50,[56],10.5 µM
same,TGI,[56],43.2 µM
same,GI50,[57],2.87 µM
same,TGI,[57],10.5 µM
same,GI50,[58],1.28 µM
same,TGI,[58],2.59 µM
